pKd: −log10 of the molar value. Read-outs that look alike come from different tables or passages of the source. No end group written: not given here.
How the values were obtained:
HLA-A*24:02 molecule = HLA-A*24:02 molecule (Homo sapiens, UniProt P04439, D101N/D140Y/D185E/E176V/E190D/F33S/G103R/G107R/I119L/I121M/I306V/K335N/L105A/L180Q/L300P/N151K/N90K/Q86E/Q94H/R106L/R138H/R89G/T104I/T345S/V100E/W191G/Y123F); test: Binding of peptide to HLA-A*24:02 molecule using C1R-A24 cells; conditions: for Kd: read-out: Measured value of allele A*24:02 (converted)
Method: Measurement of binding ability of a peptide to an HLA-A*24:02 molecule, which is a product of an HLA-A*24:02 gene, was performed using C1R-A24 cells expressing an HLA-A*24:02 molecule (Cells created by Professor Masafumi Takiguchi, Kumamoto University, was provided by Assistant Professor Masaki Yasukawa, Ehime University, with permission).
First, the C1R-A24 cells were exposed to acidic conditions at pH 3.3 for 30 seconds to dissociate and remove an endogenous peptide originally binding to an HLA-A*24:02 molecule and light chain β2m commonly associated with an HLA class I molecule. After neutralization, purified β2m was added to the C1R-A24 cells, and the mixture was added to a peptide dilution series and incubated on ice for four hours.
Thereafter, the number of MHC-peps for each C1R-A24 cell (proportional to a fluorescence intensity of the fluorescent antibody) was quantitatively measured using a fluorescence cell analyzer FACScan (Becton-Dickinson).

HLA-A*02:01 molecule = target: T1, HLA-A*02:01 molecule (Homo sapiens, UniProt P04439, D140Y/D185E/D98H/E176V/E277Q/G131W/G231S/I119V/I121R/I166T/I218V/L300P/L318F/N151K/N90K/P208A/P217A/Q86G/Q94H/R138H/R169H/T345S); test: Binding of peptide to HLA-A*02:01 molecule using cell line T2; conditions: for Kd: read-out: Measured value of allele A*02:01 (converted)
T1 construct: using a cell line T2 (purchased from ATCC) expressing an HLA-A*02:01 molecule; host or cells: T2 cell line
Method: Measurement of binding ability of a peptide to an HLA-A*02:01 molecule, which is a product of an HLA-A*02:01 gene, was performed using a cell line T2 (purchased from ATCC) expressing an HLA-A*02:01 molecule.
T2 cells and purified β2m were added to a serial dilution series of a peptide whose binding ability was to be measured, and then the mixture was incubated at 37° C. for four hours. HLA-A*02:01 molecules whose expression level increased in a peptide concentration-dependent manner by this time point were stained using an association-type specific fluorescently labeled monoclonal antibody BB7.2.
Thereafter, the amount of fluorescence per cell was measured with a flow cytometer, and a dissociation constant Kd value was calculated by the method disclosed in the article (Udaka et al., Immunogenetics, 51, 816-828, 2000) by the present inventor.

HLA-A*02:06 molecule = target: T2, HLA-A*02:06 molecule (Homo sapiens, UniProt P04439, D140Y/D185E/D98H/E176V/E277Q/F33Y/G131W/G231S/I119V/I121R/I166T/I218V/L300P/L318F/N151K/N90K/P208A/P217A/Q86G/Q94H/R138H/R169H/T345S); test: Binding of peptide to HLA-A*02:06 molecule using RA2.6 cells; conditions: for Kd: read-out: Measured value of allele A*02:06 (converted)
T2 construct: expressed in transfected cells; host or cells: RA2.6 cells (mouse TAP-deficient RMAS with HLA-A*02:06 cDNA)
Method: Measurement of binding ability of a peptide to an HLA-A*02:06 molecule, which is a product of an HLA-A*02:06 gene, was performed using RA2.6 cells (a cell line newly created at Kochi University) obtained by introducing cDNA of the HLA-A*02:06 gene into RMAS, which is a mouse transporter associated with antigen processing (TAP)-deficient cell line.
A fluorescently labeled monoclonal antibody BB7.2 that specifically recognizes a peptide binding type HLA-A*02:06 molecule was added thereto, and the mixture was incubated on ice for 20 minutes to stain the cells.

[1] = Table 2, dissociation constant Kd value (−log Kd value), >−3.0 = no significant binding ability
[2] = Table 4, Kd value (−log Kd value), smaller than −3 = binding property
[3] = Measured value of allele A*24:02, Table 2, dissociation constant Kd value (−log Kd value), >−3.0 = no significant binding ability

Sequence	Kd (HLA-A*24:02 molecule; [1]) [µM]	Kd (HLA-A*24:02 molecule; [2]) [µM]	Kd (HLA-A*02:01 molecule; [1]) [µM]	Kd (HLA-A*02:06 molecule; [1]) [µM]	further results
TVLVPPRNL [compound 48]	5.36	5.36	> 1000	> 1000	Kd (HLA-A*02:01 molecule; [2]): > 1000 µM; Measured value of allele A*02:06 (HLA-A*02:06 molecule; [2]): >−3
IFADVSSST [compound 78]	> 1000	> 1000	> 1000	> 1000	–
LLITRKSFI [compound 16]	0.23	–	7.39	23.7	–
YTYDPPTTI [compound 3]	3.11	–	0.336	–	Kd (HLA-A*02:01 molecule; [2]): 3.36 µM; Kd (HLA-A*02:06 molecule; [2]): 0.669 µM
ISAYRTCWI [compound 34]	10	–	> 1000	729	–
VLPPARHST [compound 54]	> 1000	> 1000	7.73	> 1000	–
CTDEHQWQL [compound 39]	> 1000	> 1000	9.07	0.16	–
LAEEHGATL [compound 61]	> 1000	> 1000	> 1000	32	–
ALLAPAVLL [compound 7]	1.09	–	0.216	1.43	–
ATGDCSSFI [compound 59]	> 1000	> 1000	83.1	> 1000	Measured value of allele A*02:06 (HLA-A*02:06 molecule; [2]): >−3
YQLSPPITW [compound 32]	–	–	–	–	pKd (HLA-A*24:02 molecule; [3]): 5.76; pKd (HLA-A*24:02 molecule; Measured value of allele A*24:02, Table 4, Kd value (−log Kd value), smaller than −3 = binding property): 6.76; pKd (HLA-A*02:01 molecule): 3.46; pKd (HLA-A*02:06 molecule): 5.75
LLLFSAAAL [compound 1]	11.1	–	0.881	10.9	–
ETLQFIDSM [compound 53]	> 1000	> 1000	> 1000	426	–
VMSHHGEKL [compound 19]	0.793	–	8.32	50.4	–
IALETPVWI [compound 20]	–	–	–	–	pKd (HLA-A*24:02 molecule; [3]): 5.48; pKd (HLA-A*02:01 molecule): 5.11; pKd (HLA-A*02:06 molecule): 5.52
